Key:
[1] = system: E. coli; test: DnaK mRNA level after heat-shock induction in bacteria exposed to antibiotic, real-time RT-PCR; type: cell-based, Escherichia coli; conditions: 4 or 8 ug/mL, 120 min at 37° C. in LB broth, heat-shock 42° C. 3 min before E-lysis
Method: Unless any variation was specified, RT-PCR reaction of 5 μL volume was prepared by mixing 1 μL of sample, 1 μL of Kapa 2G Robust Hotstart 5× buffer (KK5517, KAPA Biosystems), 0.05 μL of Kapa 2G Robust Hotstart DNA polymerase (kk5517, KAPA Biosystems), 0.2 μL of reverse transcriptase (GoScript, A5004 Promega), 0.04 uL of 100 mM dNTPs (10297-117, Life Technologies), 0.25 uL of DMSO, 0.13 uL of SYBR Green (1/375 dilution, S7563 Invitrogen), 0.5 μL each of respective forward and reverse primers (2.5 μM) and 1.34 μL of RNAase free water. In indicated experiments, for PCR reaction of 5 μL volume the composition was the same as RT-PCR reaction except 0.2 μL of RNAase free water was added instead of reverse transcriptase. Real time RT-PCR targeting rRNA or tmRNA was performed by reverse transcription at 50° C. for 5 min, inactivation of reverse transcriptase and activation of hotstart DNA polymerase at 97° C. for 5 min, followed by 35 to 40 cycles of cDNA amplification (denaturation at 95° C. for 5 sec, annealing at 63° for 7 sec, and extension at 72° C. for 10 sec) in Eco Real Time PCR system (Illumina) using a double stranded DNA binding fluorescent dye, SYBR Green. […]
As it is observed, the exposure of microbial cells to the antibiotic norfloxacin reduced the quantity of target mRNA by approximately 8-16 times (corresponding to 3-4 PCR cycles).

[2] = system: Klebsiella pneumoniae; test: Antimicrobial sensitivity testing of bacteria in partially lysed then enriched whole blood, real-time RT-PCR of rRNA and tmRNA; type: cell-based; conditions: 8 ug/mL final concentration, 2 hours incubation at 37° C. after 2 hours pre-incubation, K. pneumoniae spiked whole blood enriched with TSB
Method: Unless any variation is specified, the following example pretreatment procedure which includes blood cell lysis step followed by 4 wash cycles was performed in experiments which required pretreatment of blood samples. 10 μL of Fluorinert™ was added to 2 mL siliconized microcentrifuge tubes (T3531, Sigma), followed by the addition of 500 μL of the blood cell lysis reagent. The blood cell lysis reagent consisted of 75 mg/mL saponin, 15 mg/mL SPS and 1% PPG. EDTA-treated human whole blood from healthy volunteers of 1 mL spiked with microbial cells was added to the tube containing the blood cell lysis reagent and the Fluorinert™, and mixed by inverting ten times and vortexing at low speeds for 10 sec. The final concentrations of the components in the mixture were 25 mg/mL saponin, 5 mg/mL SPS and 0.33% PPG. The tubes were centrifuged at 12,000 rpm for 1 min and 1.35 mL of the supernatant was removed, leaving 150 uL of the liquid supernatant, Fluorinert™ and the sedimented microbial I cells. The first wash cycles was performed by adding 1.35 mL of 0.8 mM phosphate buffer to the remaining liquid supernatant of 150 uL as described above, mixing by vortexing at low speed for 10 sec, centrifugation at 12,000 rpm for 1 min and removal of 1.35 mL of the supernatant, leaving 150 μL of the liquid supernatant, the Fluorinert™ and the sedimented microbial. […]

In the case of `CCn1cc(C(=O)O)c(=O)c2cc(F)c(N3CCNCC3)cc21` [norfloxacin], the “reduction of target mRNA (DnaK) signal in PCR cycles after exposure to the antibiotic” value [1] is reported as 3-4 PCR cycles, the “reduction of the quantity of target mRNA (DnaK) after exposure to the antibiotic” value [1] is reported as 8-16 times and the “rRNA and tmRNA RT-PCR signal in response to the antibiotic compared to without antibiotic (Non-treated) culture” value [2] is reported as “reduction of rRNA and tmRNA”.

— patent US10233483B2, “Methods of targeted antibiotic susceptibility testing” (Qvella Corporation, priority 2013, dated 2019)
